Several values for one entry are separate records, joined by “and”; a condition that tells them apart may be missing. Equal entries are not always repeated. Toxic doses and inconclusive results are not listed.
Test system: P388 leukemia ip, CD2F1 mice, survival T/C
Experiment: NCI In Vivo Anticancer Drug Screen. Data for tumor model P388 Leukemia (intraperitoneal) in CD2F1 (CDF1) mice
Conditions: endpoint: median survival time, higher = longer survival
Summary of the method: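 Mice carrying the transplanted tumor received test compound or vehicle. Survival was recorded in each group, and the value is the treated-group measurement divided by that of the vehicle-treated control group.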

[1] = dose: 50.0 mg/kg/injection, schedule: Q01DX005 (ip), vehicle: Klucel (hydroxypropylcellulose) (HPC)
[2] = dose: 50.0 mg/kg/injection, schedule: Q01DX005 (ip), vehicle: saline with Tween-80
[3] = dose: 100.0 mg/kg/injection, schedule: Q01DX005 (ip), vehicle: Klucel (hydroxypropylcellulose) (HPC)
[4] = dose: 100.0 mg/kg/injection, schedule: Q01DX005 (ip), vehicle: saline with Tween-80
[5] = dose: 200.0 mg/kg/injection, schedule: Q01DX005 (ip), vehicle: Klucel (hydroxypropylcellulose) (HPC)
[6] = dose: 200.0 mg/kg/injection, schedule: Q01DX005 (ip), vehicle: saline with Tween-80
[7] = dose: 50.0 mg/kg/injection, schedule: Q01DX009 (ip), vehicle: saline with Tween-80
[8] = dose: 100.0 mg/kg/injection, schedule: Q01DX009 (ip), vehicle: saline with Tween-80
[9] = dose: 200.0 mg/kg/injection, schedule: Q01DX009 (ip), vehicle: saline with Tween-80
[10] = dose: 60.0 mg/kg/injection, schedule: Q01DX005 (ip), vehicle: saline with Tween-80
[11] = dose: 120.0 mg/kg/injection, schedule: Q01DX005 (ip), vehicle: saline with Tween-80
[12] = dose: 240.0 mg/kg/injection, schedule: Q01DX005 (ip), vehicle: saline with Tween-80

COc1cc2cccc(OC)c(=O)c2c(O)c1OC
T/C [1]: 86 % of control | T/C [2]: 99 % of control | T/C [3]: 88 % of control | T/C [4]: 95 % of control | T/C [5]: 88 % of control | T/C [6]: 91 % of control

O=CC(CO)CC(C=O)n1cnc2c(=O)[nH]cnc21 (stereo not given)
T/C (dose: 150.0 mg/kg/injection, schedule: Q01DX005 (ip), vehicle: saline): 155 % of control and 158 % of control | T/C (dose: 300.0 mg/kg/injection, schedule: Q01DX005 (ip), vehicle: saline): 165 % of control and 174 % of control

CCSC(=O)c1cc(C(=O)SCC)cc(C(C)(C)C)c1
T/C (dose: 25.0 mg/kg/injection, schedule: Q01DX009 (ip), vehicle: saline): 100 % of control and 105 % of control | T/C [7]: 100 % of control | T/C (dose: 50.0 mg/kg/injection, schedule: Q01DX009 (ip), vehicle: saline): 98 % of control and 95 % of control | T/C [8]: 114 % of control | T/C (dose: 100.0 mg/kg/injection, schedule: Q01DX009 (ip), vehicle: saline): 98 % of control and 101 % of control | T/C [9]: 124 % of control | T/C (dose: 200.0 mg/kg/injection, schedule: Q01DX009 (ip), vehicle: saline): 107 % of control and 97 % of control

COc1ccc2c(C)cc(NN)nc2c1
T/C (dose: 6.25 mg/kg/injection, schedule: Q01DX005 (ip), vehicle: Klucel (hydroxypropylcellulose) (HPC)): 104 % of control | T/C (dose: 12.5 mg/kg/injection, schedule: Q01DX005 (ip), vehicle: Klucel (hydroxypropylcellulose) (HPC)): 103 % of control

O=c1[nH]nc(SCc2c(Cl)cccc2Cl)c(=O)[nH]1
T/C (dose: 25.0 mg/kg/injection, schedule: Q01DX005 (ip), vehicle: Klucel (hydroxypropylcellulose) (HPC)): 95 % of control | T/C [1]: 93 % of control | T/C [3]: 111 % of control | T/C [5]: 95 % of control

Cc1ccc(/C=C/C(=O)C(CN(C)C)CN(C)C)cc1
T/C (dose: 1.56 mg/kg/injection, schedule: Q01DX005 (ip), vehicle: saline): 100 % of control | T/C (dose: 3.12 mg/kg/injection, schedule: Q01DX005 (ip), vehicle: saline): 106 % of control

COC(=O)c1cc(-c2ccc([N+](=O)[O-])cc2)n2c(N)nnc2n1
T/C [10]: 92 % of control | T/C [11]: 86 % of control

CC(=O)N(c1nc2ccccc2n1C)C(C)C
T/C (dose: 25.0 mg/kg/injection, schedule: Q01DX009 (ip), vehicle: saline with Tween-80): 110 % of control | T/C [7]: 98 % of control | T/C [8]: 115 % of control

Cc1c2c(c(C)c3c1C(=O)c1cc4c(cc1C3=O)OCO4)OC(C)O2
T/C [10]: 89 % of control | T/C [11]: 89 % of control | T/C [12]: 91 % of control

CC(=O)Oc1cc2c(cc1OC(C)=O)C(=O)c1cc3c(cc1C2=O)OCO3
T/C [10]: 107 % of control | T/C [11]: 120 % of control | T/C [12]: 108 % of control

CSC(=O)NCCCN(C)C
T/C (dose: 50.0 mg/kg/injection, schedule: Q01DX005 (ip), vehicle: saline): 106 % of control | T/C (dose: 100.0 mg/kg/injection, schedule: Q01DX005 (ip), vehicle: saline): 107 % of control | T/C (dose: 200.0 mg/kg/injection, schedule: Q01DX005 (ip), vehicle: saline): 104 % of control

COc1cc(C2c3c(oc4ccccc4c3=O)Oc3oc4ccccc4c(=O)c32)cc(OC)c1OC
T/C [10]: 86 % of control | T/C [11]: 87 % of control

O=C1NC(O)c2cccc(Br)c2O1 (stereo not given)
T/C [2]: 93 % of control | T/C [4]: 107 % of control | T/C [6]: 117 % of control

CCn1ncc2c(=O)c(C(=O)c3ccccc3)c[nH]c21
T/C [2]: 99 % of control | T/C [4]: 97 % of control | T/C [6]: 104 % of control

SC1CCCN(Cc2ccccc2)C1 (stereo not given)
T/C [2]: 117 % of control | T/C [4]: 108 % of control | T/C [6]: 110 % of control

Cc1ncc(C(O)c2ccc(N(C)C)cc2)n1Cc1ccccc1 (stereo not given)
T/C [10]: 98 % of control | T/C [11]: 95 % of control | T/C [12]: 95 % of control

COc1cc2c(cc1OC)C(C)C1c3cc4c(cc3CCN1C2)OCO4 (stereo not given)
T/C (dose: 50.0 mg/kg/injection, schedule: Q04DX003 (ip), vehicle: distilled water + Tween-80): 103 % of control and 100 % of control | T/C (dose: 100.0 mg/kg/injection, schedule: Q04DX003 (ip), vehicle: distilled water + Tween-80): 97 % of control and 103 % of control | T/C (dose: 200.0 mg/kg/injection, schedule: Q04DX003 (ip), vehicle: distilled water + Tween-80): 99 % of control and 103 % of control | T/C (dose: 400.0 mg/kg/injection, schedule: Q04DX003 (ip), vehicle: distilled water + Tween-80): 103 % of control

CSc1nc2[nH]cnc(=S)c2[nH]1
T/C (dose: 6.25 mg/kg/injection, schedule: Q04DX003 (ip), vehicle: saline with Tween-80): 90 % of control | T/C (dose: 12.5 mg/kg/injection, schedule: Q04DX003 (ip), vehicle: saline with Tween-80): 90 % of control | T/C (dose: 25.0 mg/kg/injection, schedule: Q04DX003 (ip), vehicle: saline with Tween-80): 109 % of control

Cn1c(-c2ccccc2)c(C(=O)CC(=O)CN2CCOCC2)c2ccccc21
T/C (dose: 100.0 mg/kg/injection, schedule: Q01DX001 (ip), vehicle: saline): 98 % of control | T/C (dose: 200.0 mg/kg/injection, schedule: Q01DX001 (ip), vehicle: saline): 108 % of control | T/C (dose: 400.0 mg/kg/injection, schedule: Q01DX001 (ip), vehicle: saline): 97 % of control

Cc1cn(O)c(=N)c(C(N)=O)n1
T/C (dose: 37.5 mg/kg/injection, schedule: Q01DX009 (ip), vehicle: saline with Tween-80): 90 % of control | T/C (dose: 75.0 mg/kg/injection, schedule: Q01DX009 (ip), vehicle: saline with Tween-80): 100 % of control | T/C (dose: 150.0 mg/kg/injection, schedule: Q01DX009 (ip), vehicle: saline with Tween-80): 107 % of control

COC(=O)C1C(O)C(C)C(O)C(C)(O)/C=C/C=C(C)C(=O)Nc2c(C)c(OC(C)=O)c3c(c2O)C(=O)C(C)=C2OCOC(=C23)C(C)=CC(C)(O)C(O)C(C)C1OC(C)=O (stereo not given)
T/C [10]: 95 % of control | T/C [11]: 105 % of control | T/C [12]: 108 % of control

Nc1cc(N)cc(C(=O)c2ccccc2)c1
T/C [8]: 95 % of control | T/C [9]: 95 % of control | T/C (dose: 400.0 mg/kg/injection, schedule: Q01DX009 (ip), vehicle: saline with Tween-80): 90 % of control

COC(=O)/C=C(\C(=O)OC)c1ccccc1C(C(=O)OC)c1ccccc1CC(=O)OC (stereo not given)
T/C [7]: 108 % of control | T/C [8]: 106 % of control | T/C [9]: 108 % of control

CNC(=O)OCc1c(COC(=O)NC)c(-c2cc(F)ccc2F)n2c1CCC2
T/C (dose: 12.5 mg/kg/injection, schedule: Q01DX009 (ip), vehicle: distilled water + Tween-80): 151 % of control | T/C (dose: 25.0 mg/kg/injection, schedule: Q01DX009 (ip), vehicle: distilled water + Tween-80): 155 % of control and 156 % of control

COc1cc(N(C)c2cc(=O)n(C)c(=O)[nH]2)ccc1C
T/C (dose: 12.5 mg/kg/injection, schedule: Q01DX005 (ip), vehicle: saline with Tween-80): 101 % of control | T/C (dose: 25.0 mg/kg/injection, schedule: Q01DX005 (ip), vehicle: saline with Tween-80): 101 % of control | T/C [2]: 100 % of control and 94 % of control

COc1ccc2c(c1)C(O)C(CO)C(C(=O)O)C2 (stereo not given)
T/C [1]: 106 % of control | T/C [3]: 101 % of control | T/C [5]: 101 % of control

COC(=O)Cc1cc(=O)[nH][nH]1
T/C (dose: 50.0 mg/kg/injection, schedule: Q01DX001 (ip), vehicle: suspension in saline): 93 % of control | T/C (dose: 100.0 mg/kg/injection, schedule: Q01DX001 (ip), vehicle: suspension in saline): 95 % of control | T/C (dose: 200.0 mg/kg/injection, schedule: Q01DX001 (ip), vehicle: suspension in saline): 86 % of control

NNC(=O)CCc1ccccc1Br
T/C [7]: 100 % of control and 90 % of control | T/C (dose: 50.0 mg/kg/injection, schedule: Q04DX003 (ip), vehicle: saline with Tween-80): 104 % of control | T/C [8]: 100 % of control | T/C (dose: 100.0 mg/kg/injection, schedule: Q04DX003 (ip), vehicle: saline with Tween-80): 90 % of control | T/C [9]: 95 % of control | T/C (dose: 200.0 mg/kg/injection, schedule: Q04DX003 (ip), vehicle: saline with Tween-80): 90 % of control
